Assays:
[1] = test system: IL-6; assay: IL-6 in supernatants of LPS-primed, nigericin-treated THP1 macrophages, Hu IL-6 AlphaLISA; format: cell-based; settings: Homo sapiens, THP-1, PMA-differentiated, 1 hr compound, Nigericin 6.7 uM 3 hrs, IL-6 in supernatant
Description: (§1) NLRP3 Inflammasome Activation and Cell Viability Assessment in THP1 Macrophages
(§2) THP1—Human acute monocytic leukemia cells were cultured (ATCC, cat #TIB-202) in Gibco RPMI-1640 medium (ThermoFisher cat #72400054) supplemented with 10% Heat Inactivated FBS at density between 3-8×10^5 viable cells/mi. The cells were then subcultured when the cell concentration reached 8×10^5 cells/mL (every 2-3 days).
(§3) The parameter wells were filled with 50 ul PBS and incubated at 37° C., 5% CO2 for 48 hrs.
(§4) After 48 hrs incubation, the PMA containing media was removed, and changed for 40 ul/well of fresh DMEM, 10% FBS, 1× GlutaMax and incubated at 37° C., 5% CO2 for 24 hrs.
(§5) The following day the cells were primed with LPS (E. coli) (Sigma, cat #L3129) […] in DMEM, 10% FBS, 1× GlutaMax for 3 hrs at 37° C., 5% CO2.
(§6) Following the LPS priming step, the cells were treated with compounds at 10 uM top final concentration, 1:4 dilution, 8 times: (10 uM, 2.5 uM, 0.625 uM, 0.156 uM, 0.039 uM, 0.0097 uM, 0.0024 uM, 0.0006 uM). DMSO was used as a vehicle control, and MCC950 (InvivoGen, cat #inh-mcc) was used at 1 uM as a positive control, and incubated for 1 hrs at 37° C., 5% CO2.
(§7) Following the 1 hr compound incubation, the NLRP3 inflammasome activation step was conducted by treating cells with Nigericin (InvivoGen, cat #tlrl-nig) at 6.7 uM final concentration for 3 hrs at 37° C., 5% CO2.
(§8) Thereafter, 30 ul samples of cells' supernatants were collected for cytokine analysis which was conducted on Hu IL-1β AlphaLISA (Perkin Elmer, cat #AL220C) and Hu IL-6 AlphaLISA (Perkin Elmer, cat #AL220C). The cells' viability was assessed by performing CellTiter-Glo Luminescent Assay (Promega, cat #G7572) according to the manufacturer's protocol.

[2] = biological target: T1, NLRP3 inflammasome (Homo sapiens, UniProt Q96P20); assay: NLRP3 inflammasome activation in LPS-primed, nigericin-activated THP1 macrophages, IL-1β AlphaLISA; format: cell-based; settings: PMA-differentiated, 1 hr compound, Nigericin 6.7 uM 3 hrs, IL-1β in supernatant
T1 construct: host or cells: THP1 human acute monocytic leukemia cells, PMA-differentiated, LPS-primed
T1 sequence (Q96P20 whole entry): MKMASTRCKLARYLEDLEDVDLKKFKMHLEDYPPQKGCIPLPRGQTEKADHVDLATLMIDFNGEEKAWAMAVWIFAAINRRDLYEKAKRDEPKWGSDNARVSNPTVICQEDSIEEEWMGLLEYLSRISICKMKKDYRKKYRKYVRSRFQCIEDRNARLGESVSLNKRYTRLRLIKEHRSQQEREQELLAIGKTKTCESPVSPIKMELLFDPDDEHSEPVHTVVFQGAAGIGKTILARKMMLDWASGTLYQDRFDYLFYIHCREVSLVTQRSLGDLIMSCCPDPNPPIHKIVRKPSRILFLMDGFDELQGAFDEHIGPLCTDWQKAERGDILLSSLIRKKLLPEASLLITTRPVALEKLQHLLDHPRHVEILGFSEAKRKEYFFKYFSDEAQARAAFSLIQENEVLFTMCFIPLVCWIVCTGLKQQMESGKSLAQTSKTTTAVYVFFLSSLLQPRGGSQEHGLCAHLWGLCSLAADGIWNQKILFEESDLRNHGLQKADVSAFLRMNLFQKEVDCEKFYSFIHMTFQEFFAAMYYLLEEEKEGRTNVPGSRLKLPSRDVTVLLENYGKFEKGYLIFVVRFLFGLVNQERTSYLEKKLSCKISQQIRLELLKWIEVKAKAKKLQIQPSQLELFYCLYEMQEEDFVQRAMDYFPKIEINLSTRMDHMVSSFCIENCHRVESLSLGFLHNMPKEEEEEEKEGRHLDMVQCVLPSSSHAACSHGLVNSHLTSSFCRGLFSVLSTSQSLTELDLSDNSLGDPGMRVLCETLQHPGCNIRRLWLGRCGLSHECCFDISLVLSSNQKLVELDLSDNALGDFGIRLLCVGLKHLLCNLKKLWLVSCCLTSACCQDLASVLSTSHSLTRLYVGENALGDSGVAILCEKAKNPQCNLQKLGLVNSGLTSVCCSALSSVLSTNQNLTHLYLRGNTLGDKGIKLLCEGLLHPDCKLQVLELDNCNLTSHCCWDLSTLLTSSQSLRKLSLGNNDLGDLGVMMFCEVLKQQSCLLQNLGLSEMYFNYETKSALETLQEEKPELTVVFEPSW
Description: as §1, §2, §3, §4, §5, §6, §7, §8

| IC50 [1] | IC50 [2] | Structure (SMILES) |
| --- | --- | --- |
| ≥ 10 µM | 0.5 to 1 µM | CN1CCC[C@@H](N(C)c2nnc(-c3ccc(C(F)(F)F)cc3)c3ccsc23)C1 [Compound 95] |
| ≤ 1 µM | < 0.01 µM | Cc1cc(C(F)(F)F)cc(O)c1-c1nnc(N[C@@H]2CCCN(C)C2)c2c1ccn2C [Compound 143] |
| ≥ 10 µM | ≥ 10 µM | Cc1cc(C#N)cc(C)c1-c1nnc(N[C@@H]2CCCN(C)C2)c2c1ccn2C [Compound 126] |
| ≥ 10 µM | 0.01 to 0.1 µM | Cn1ccc2c(-c3ccc(C#N)cc3O)nnc(N[C@@H]3CCCN(CCF)C3)c21 [Compound 148] |
| 1 to 5 µM | 0.1 to 0.5 µM | CN1CCC[C@@H](Nc2nnc(-c3ccc(C(F)(F)F)cn3)c3cnn(C)c23)C1 [Compound 136] |
| ≥ 10 µM | 0.1 to 0.5 µM | CN1CCC[C@@H](Nc2nnc(-c3ccc(C(F)(F)F)cc3)c3c2OCC3)C1 [Compound 58] |
| ≥ 10 µM | 0.01 to 0.1 µM | Cn1ncc2c(-c3ccc(C(F)(F)F)cc3)nnc(N[C@@H]3CCCN(C4CC4)C3)c21 [Compound 109] |
| ≥ 10 µM | 0.01 to 0.1 µM | CN1CCC[C@@H](Nc2nnc(-c3ccccc3O)c3ccn(C)c23)C1 (single isomer, unassigned) [Compound 17] |
| ≥ 10 µM | 0.5 to 1 µM | Cc1cc(C(F)(F)F)ccc1-c1nnc(N[C@@H]2CCCN(C)C2)c2cc[nH]c12 [Compound 3] |
| ≥ 10 µM | 0.01 to 0.1 µM | Cn1ccc2c(-c3ccc(C#N)cc3O)nnc(N[C@@H]3CCCN(CC(C)(C)O)C3)c21 [Compound 152] |
| ≥ 10 µM | 0.1 to 0.5 µM | CN1CCC[C@@H](Nc2nnc(-c3ccc(C(F)(F)F)cc3)c3[nH]ccc23)C1 (single isomer, unassigned) [Compound 2] |
| ≥ 10 µM | < 0.01 µM | CN1CCC[C@@H](Nc2nnc(-c3ccc(C#N)cc3O)c3cnsc23)C1 [Compound 144] |
| 5 to 10 µM | < 0.01 µM | CC(C)N1CCC[C@@H](Nc2nnc(-c3ncc(C#N)cc3O)c3ccn(C)c23)C1 [Compound 99] |
| ≥ 10 µM | 1 to 10 µM | CN1CCC[C@@H](Nc2nnc(-c3ccc(C(F)(F)F)cc3)c3ncn(C)c23)C1 [Compound 30] |
| 1 to 5 µM | 0.1 to 0.5 µM | CN1CCC[C@@H](N(C)c2nnc(-c3ccc(F)cc3O)c3ccn(C)c23)C1 [Compound 81] |
| ≥ 10 µM | 1 to 10 µM | CN1CCC[C@@H](N(C)c2nnc(-c3ccc(C(F)(F)F)cc3)c3c2ccn3C)C1 [Compound 71] |
| 1 to 5 µM | 0.01 to 0.1 µM | CN1CCC[C@@H](Nc2nnc(-c3ccc(Cl)cc3)c3cc[nH]c23)C1 [Compound 10] |
| ≥ 10 µM | 0.1 to 0.5 µM | CN1CCC[C@@H](Nc2nnc(-c3ccc(C#N)cc3O)c3c(Cl)cn(C)c23)C1 [Compound 157] |
| ≥ 10 µM | ≥ 10 µM | CN1CCC[C@@H](Nc2nnc(-c3ccc(F)cc3)c3[nH]ccc23)C1 [Compound 9] |

| IC50 [1] | IC50 [2] | Structure (SMILES) |
| --- | --- | --- |
| ≥ 10 µM | 0.01 to 0.1 µM | CN1CCC[C@@H](Nc2nnc(-c3ccc(C(F)(F)F)cc3)c3cnn(C)c23)C1 [Compound 31] |
| ≥ 10 µM | ≥ 10 µM | Cn1ccc2c(-c3ccc(C#N)cc3O)nnc(N[C@H]3CN(CCF)CC(F)(F)C3)c21 [Compound 149] |
| 5 to 10 µM | 0.01 to 0.1 µM | CN1CCC[C@@H](Nc2nnc(-c3ccc(C#N)cc3O)c3ccn(C)c23)C1 [Compound 100] |
| ≥ 10 µM | ≥ 10 µM | Cc1cc(C#N)cnc1-c1nnc(N[C@@H]2CCCN(C)C2)c2c1cnn2C [Compound 139] |
| ≥ 10 µM | 0.1 to 0.5 µM | CN1CCC[C@@H](Nc2nnc(-c3ncc(C#N)cc3O)c3cnn(C)c23)C1 [Compound 111] |
| ≥ 10 µM | 1 to 10 µM | Cn1ccc2c(-c3ccc(C#N)cc3O)nnc(N[C@@H]3CCCN(c4ccncc4)C3)c21 [Compound 162] |
| ≥ 10 µM | < 0.01 µM | CN1CCC[C@@H](Nc2nnc(-c3ccc(C(F)(F)F)cc3)c3c2cnn3C)C1 [Compound 32] |
| 5 to 10 µM | 1 to 10 µM | Cc1cc(-c2nnc(N[C@@H]3CCCN(C)C3)c3[nH]ccc23)ccc1C(F)(F)F [Compound 23] |
| 1 to 5 µM | < 0.01 µM | CN1CCC[C@@H](Nc2nnc(-c3ccc(F)cc3O)c3ccn(C)c23)C1 [Compound 78] |
| 5 to 10 µM | 0.1 to 0.5 µM | CN1CCC[C@@H](N(C)c2nnc(-c3ccccc3O)c3cc[nH]c23)C1 (single isomer, unassigned) [Compound 24] |
| ≥ 10 µM | 1 to 10 µM | Cn1ccc2c(-c3ccc(C#N)cc3O)nnc(N[C@@H]3CCCN(C4COC4)C3)c21 [Compound 160] |
| ≥ 10 µM | ≥ 10 µM | Cn1ccc2c(-c3ccc(C#N)cc3O)nnc(N[C@@H]3CCCN(c4cccnc4)C3)c21 [Compound 163] |
| 5 to 10 µM | 0.01 to 0.1 µM | CN1CCC[C@@H](Nc2nnc(-c3ccc(C(F)(F)F)cc3)c3sncc23)C1 [Compound 64] |
| 5 to 10 µM | < 0.01 µM | CN1CCC[C@@H](Nc2nnc(-c3ccc(C(F)(F)F)cc3)c3c2CCC3)C1 [Compound 65] |
| ≥ 10 µM | ≥ 10 µM | CN1CCC[C@@H](N(C)c2nnc(-c3ccc(C#N)cc3)c3ccn(C)c23)C1 [Compound 84] |
| ≥ 10 µM | ≥ 10 µM | C[N+]1(C)CCC[C@@H](Nc2nnc(-c3ccc(C(F)(F)F)cc3)c3nc[nH]c23)C1 [Compound 92] |
| ≥ 10 µM | < 0.01 µM | Cn1ccc2c(-c3ccc(C#N)cc3O)nnc(N[C@@H]3CCCN(CCO)C3)c21 [Compound 147] |
| ≥ 10 µM | 0.1 to 0.5 µM | CN1CCC[C@@H](N(C)c2nnc(-c3ccc(F)cc3O)c3ccoc23)C1 [Compound 107] |
| ≥ 10 µM | ≥ 10 µM | CN1CCC[C@@H](N(C)c2nnc(-c3ccc(C(F)(F)F)cc3)c3ncn(C)c23)C1 [Compound 105] |

| IC50 [1] | IC50 [2] | Structure (SMILES) |
| --- | --- | --- |
| ≥ 10 µM | 0.1 to 0.5 µM | CN1CCC[C@@H](Nc2nnc(-c3ccccc3C(F)F)c3cc[nH]c23)C1 [Compound 12] |
| ≥ 10 µM | 0.1 to 0.5 µM | CN1CCC[C@@H](Oc2nnc(-c3ccc(F)cc3O)c3cc[nH]c23)C1 [Compound 90] |
| ≥ 10 µM | 0.01 to 0.1 µM | Cn1ccc2c(-c3ccc(C#N)cc3O)nnc(N[C@@H]3CCCN(C4CC4)C3)c21 [Compound 146] |
| ≥ 10 µM | 0.01 to 0.1 µM | Cc1cc(C#N)ccc1-c1nnc(N[C@@H]2CCCN(C)C2)c2c1cnn2C [Compound 112] |
| ≥ 10 µM | 0.1 to 0.5 µM | CN1CCC[C@@H](Nc2nnc(-c3ccc(C(F)(F)F)cn3)c3ccn(C)c23)C1 [Compound 129] |
| 1 to 5 µM | 1 to 10 µM | CN1CCC[C@@H](N(C)c2nnc(-c3ccc(Cl)cc3)c3ccn(C)c23)C1 [Compound 82] |
| ≤ 1 µM | 0.5 to 1 µM | CC(C)N1CCC[C@@H](Nc2nnc(-c3ccc(C(F)(F)F)cc3)c3ccn(C)c23)C1 [Compound 77] |
| ≥ 10 µM | 0.5 to 1 µM | CN1CCC[C@@H](Nc2nnc(-c3ccc(C(F)(F)F)cc3)c3c2ncn3C)C1 [Compound 29] |
| ≥ 10 µM | ≥ 10 µM | CN1C[C@H](Nc2nnc(-c3ccc(C#N)cc3O)c3ccn(C)c23)CC(F)(F)C1 [Compound 145] |
| 1 to 5 µM | 0.01 to 0.1 µM | CN1CCC[C@@H](Nc2nnc(-c3ccc(C(F)(F)F)cc3)c3sccc23)C1 [Compound 62] |
| ≥ 10 µM | < 0.01 µM | N#Cc1ccc(-c2nnc(N[C@@H]3CCCN(CCO)C3)c3sncc23)c(O)c1 [Compound 151] |
| 5 to 10 µM | < 0.01 µM | CCN1CCC[C@@H](Nc2nnc(-c3ccc(C#N)cc3O)c3ccn(C)c23)C1 [Compound 103] |
| 5 to 10 µM | 0.01 to 0.1 µM | Cc1cc2c(-c3ccc(C(F)(F)F)cc3)nnc(N[C@@H]3CCCN(C)C3)c2n1C [Compound 101] |
| ≥ 10 µM | 1 to 10 µM | CN1CCC[C@@H](Oc2nnc(-c3ccc(C(F)(F)F)cc3)c3ccoc23)C1 [Compound 88] |
| ≥ 10 µM | ≥ 10 µM | Cn1ccc2c(-c3ccc(C#N)cc3O)nnc(N[C@@H]3CCCN(c4ccccc4)C3)c21 [Compound 161] |
| ≥ 10 µM | < 0.01 µM | Cc1cc(C#N)cc(O)c1-c1nnc(N[C@@H]2CCCN(C)C2)c2c1cnn2C [Compound 115] |
| 5 to 10 µM | 0.1 to 0.5 µM | CN1CCC[C@@H](Oc2nnc(-c3ccc(C(F)(F)F)cc3)c3cc[nH]c23)C1 [Compound 39] |
| ≥ 10 µM | 0.1 to 0.5 µM | Cn1ccc2c(-c3ccc(C#N)cc3O)nnc(N[C@@H]3CCCN(CCN)C3)c21 [Compound 164] |

— patent US20260015357A1, “MODULATORS OF NLRP3 INFLAMMASOME AND RELATED PRODUCTS AND METHODS” (Neumora Therapeutics, Inc., priority 2022, published 2026)
